Results reported in patent US10550165B2, “Peptide for inducing regeneration of tissue and use thereof” (STEMRIM INC., priority 2011, dated 2020).

How the values were obtained:
[1] = test system: PDGFRα-positive, CD44-positive cells in the peripheral blood; assay: Mobilization of PDGFRα-positive, CD44-positive cells into peripheral blood (FACS); assay type: in vivo, mouse; conditions: 10 μg via the caudal vein, C57Bl6 mice, blood after 12 hours; PBS group 1.33%
Method: 10 μg of synthetic peptide (amino acids of positions 1 to 44) was dissolved in 200 μl of PBS and administered to C57B16 mice (female, 8 weeks old) via the caudal vein using a syringe with 30-gauge needle. An equal volume of PBS was administered as a negative control. After 12 hours, peripheral blood was collected from the left ventricle of the heart under systemic anesthesia with isoflurane. After adding 3 ml of PBS (Nacalai tesque; Cat. 14249-95), 3 ml of Ficoll-Paque Plus (GE Healthcare; Cat. 17-1440-02) was overlaid onto the blood. The blood was centrifuged in a centrifuge at 400 G and 25° C. for 45 minutes. The upper serum layer was discarded, and only the cells seen as a white band in the intermediate layer were collected. Then, 45 ml of PBS was added to the collected cells, and centrifuged in a centrifuge at 800 G and 25° C. for 20 minutes. After the supernatant was discarded, 10 ml of PBS was added and centrifuged at 1500 rpm and 25° C. for 10 minutes. The supernatant was discarded and 1 ml of hemolysis buffer (HLB; Immuno-Biological Laboratories) was added to the cells. After pipetting, the cells were allowed to stand for 5 minutes. Then, 10 ml of PBS was added to the cells and centrifuged at 1500 rpm and 25° C. for 10 minutes. […] The cells prepared as described above were analyzed using FACSCant™ II.

[2] = test system: rat cerebral infarction model; assay: Middle cerebral artery thread occlusion model (cerebral infarction); assay type: in vivo; conditions: 50 μg caudal vein
Excerpt: Eight- to ten-week-old male Wister rats were used. Rats were anesthetized by isoflurane inhalation while warming on a keep-warm mat with a body temperature monitor. After confirming that the anesthetic effect was sufficient, cervical hair was removed to expose the skin. The surgical site was sterilized with alcohol. Along the cervical median line, the skin was incised with a scalpel. After the right external carotid artery was ligated and the right common carotid artery was pressurized to temporarily block the blood flow, an occlusion thread made of #4 monofilament nylon with siliconized tip was inserted into the right external carotid artery toward the right internal carotid artery. While releasing the pressure on the common carotid artery, the occlusion thread was advanced along with the blood stream from the internal carotid artery up to the bifurcation to the middle cerebral artery so that the blood flow was blocked. Furthermore, the thread around the right common carotid artery was ligated to completely block the blood flow for 50 minutes. After removing the occlusion thread and loosening the ligature at the common carotid artery, the skin was sutured to complete the surgery.
50 μg of synthetic peptide (1-44) was administered at the caudal vein. The first administration was carried out 6 hours after the production of cerebral infarction. Then, the peptide was administered five times at 24-hour intervals (five days in total).
After 14 days of the final drug administration, the rats were given sufficiently deep anesthesia, and placed in a container filled with carbon dioxide. The complete arrest of heartbeat and breathing was confirmed. Brains were excised and immediately fixed by immersion in buffered 10% formalin. After paraffin embedding, thin sections were prepared and stained with hematoxylin-eosin. Four sections were prepared from each brain at 1.92 mm anterior to bregma (1.92), 0.60 mm anterior to bregma (0.60), 1.56 mm posterior to bregma (−1.56), and 3.24 mm posterior to bregma (−3.24), and the areas were compared.

Which “proportion of PDGFRα-positive, CD44-positive cells in the peripheral blood, average” value [1] does the source give for “synthetic peptide (1-44): chemically synthesized HMGB1 peptide, amino acids 1 to 44, mouse HMGB1 sequence (MGKGDPKKPRGKMSSYAFFVQTCREEHKKKHPDASVNFSEFSKK; UniProt P63158 1-44, looked up, fragment)” here?
Its value is 4.33%.

What about the “infarction area (% ratio to normal brain area in the right brain), four sections” value ([2]; five administrations, versus negative control (PBS), FIG. 17) of the same substance?
Its value is “significantly reduced as compared to the negative control group”.

And the “animals showing expansion of the infarction to the cortex” value ([2]; N=10, first 6 h after infarction, five times at 24-hour intervals, 14 days after final administration, negative control 8 of 11)?
The value was “only one mouse showed expansion of the infarction to the cortex”.

And the “animals in which the infarction was limited in the basal nucleus” value ([2]; N=10, five administrations, 14 days after final administration)?
Its value is 9.
